# Reference: patent US20260263613A1, “USE OF DRUG C[…]-CD20 ANTIBODY-DRUG CONJUGATE IN PREPARATION OF DRUG FOR TREATING NHL” (priority 2023, published 2026)
# Values joined by “and” are separate entries in the source; they are usually repeats but may differ in a detail not shown here. Equal entries are not always repeated.
# Tests used:
# [1] = Body weight and drug-related deaths of WSU-DLCL2 tumor-bearing animals; format: in vivo, SCID mouse
# Method: (§1) Under sterile conditions, each SCID mouse was inoculated with 0.1 mL of WSU-DLCL2 cell suspension at a concentration of 4×10^7/mL subcutaneously on the right back. When the mean tumor volume (TV) reached ~150 mm^3, animals were randomized into 4 groups according to their TV: Group 1 (Vehicle), Group 2 (R-CHOP), Group 3 (TRS005) and Group 4 (TRS005-CHP (T-CHP)), with 6 mice in each group, so that the difference in TV of mice in each group was <10% of the mean. The day of grouping was recorded as Day 0, and the administration was started according to animal body weight (BW).
# (§2) The BW and TV of animals were measured twice a week during the study. During the study, the clinical symptoms of animals were observed and recorded once a day. Clinical observations included general health status, abnormal BW and behavior of animals, and other treatment-related adverse reactions.
# (§3) The animal body weight change (% BWC) is calculated as follows: (BWt−BW0)/BW0×100%, where BWt is the animal BW at each measurement and BW0 is the animal BW at grouping.
# (§4) According to the Technical Guidelines for Nonclinical Study of Cytotoxic Anti-tumor Drugs (November 2006) issued by NMPA in China, it is considered effective if % T/CRTV≤40% and P<0.05 after statistical analysis. Drug doses are considered to be severely toxic when the number of animal deaths related to the drug exceeds 20%.
# [2] = Body weight and drug-related deaths of OCI-LY19 tumor-bearing animals; format: in vivo, mouse
# Method: (§5) The drug information is the same as in Embodiment 3. Under sterile conditions, each mouse was inoculated with 0.1 mL of OCI-LY19 cell suspension at a concentration of 2×10^6/mL subcutaneously on the right back. When the mean TV reached ~150 mm^3, animals were randomized into 4 groups according to their TV: Group 1 (Vehicle), Group 2 (R-CHOP), Group 3 (TRS005) and Group 4 (T-CHP), with 10 mice in each group, so that the difference in TV of mice in each group was <10% of the mean. The day of grouping was recorded as Day 0, and the administration was started according to animal BW.
# (§6) The BW and TV of animals were measured twice a week during the study. During the study, the clinical symptoms of animals were observed and recorded once a day. Clinical observations included general health status, abnormal BW and behavior of animals, and other treatment-related adverse reactions. During the study, if an individual experimental animal meets any of the following conditions, the animal will be removed from the study group and euthanized. 1. The body weight loss (BWL) of animals was ≥20% compared with Day 0; 2. Animals had serious adverse reactions, such as blindness and paralysis; 3. TV was >2000 mm^3; 4. Open ulcers were formed on the tumor surface.
# as §3
# [3] = tested on: human lymphoma OCI-LY19 cell xenograft tumors; test: Growth inhibition of human lymphoma OCI-LY19 cell xenograft tumors; format: in vivo, mouse
# Method: Embodiment 4: Growth Inhibition of Human Lymphoma OCI-LY19 Cell Xenograft Tumors by TRS005 Alone and TRS005 in Combination with CHP Compared to R-CHOP Regimen Administration
# as §5, §6
# The calculation formula for TV is: ½×a×b^2, where a and b are the measured length and width of the tumor, respectively.
# (§7) The tumor growth inhibition rate (% TGI) is calculated as follows: (1−TVT/TVC)×100%, where TVC is the mean TV of the negative control group, and TVT is the mean TV of the treatment group.
# (§8) Relative Tumor Volume (RTV) is calculated as Vt/V0, where V0 is the TV at grouping and Vt is the TV at each measurement.
# (§9) The calculation formula for relative tumor proliferation rate (% T/CRTV) is: • TRTV/CRTV×100%, where TRTV is the RTV of the treatment group and CRTV is the RTV of the negative control group.
# [4] = tested on: human lymphoma WSU-DLCL2 cell xenograft tumor; test: Inhibition of human lymphoma WSU-DLCL2 cell xenograft tumor growth; format: in vivo, SCID mouse
# Method: Example 3: Inhibition of Human Lymphoma WSU-DLCL2 Cell Xenograft Tumor Growth by TRS005 Alone and TRS005 in Combination with CHP Compared to R-CHOP Regimen Administration Drug Information, Model Establishment, Grouping, and Administration
# The TRS005 finished product is provided by Zhejiang Teruisi Pharmaceutical Inc., and other positive drugs are commercially available. Among them, MabThera, Cyclophosphamide, Doxorubicin, Vincristine, and Prednisone are prepared with normal saline as the solvent to corresponding concentrations and stored at 4° C. away from light. The TRS005 finished product is reconstituted with sterile water for injection (WFI), and a corresponding volume of normal saline is added to prepare the corresponding concentration. The TRS005 finished product is reconstituted and packaged with WFI and stored at −70° C.
# as §1, §2, §7, §8, §9, §4
substance,measurement,setting,value
"TRS005: anti-CD20 ADC; mAb is Rituximab or a biosimilar thereof, drug antibody ratio (DAR) 4.2±0.5",Body Weight of Mice (Mean ± SEM) Day 0,[1]; Day 0 (baseline),20.12 ± 0.35 g
same,Body Weight of Mice (Mean ± SEM) Day 35,[1]; Day 35,20.78 ± 0.50 g
same,% BWC Day 35 vs Day 0,[1]; WSU-DLCL2 tumor-bearing mice,3.25%
same,Body weight change Day 35 vs Day 0,[1]; WSU-DLCL2 tumor-bearing mice,0.66 g
same,Safety / drug-related toxicity in words,"[1]; WSU-DLCL2 tumor-bearing mice, during the study",good safety
same,Number of Mice with Drug-related Deaths Day 35,[1]; deaths/number of mice,0/6
same,Body Weight of Mice (Mean ± SEM) Day 0,[2]; Day 0 (baseline),20.95 ± 0.36 g
same,Body Weight of Mice (Mean ± SEM) Day 14,[2]; Day 14,22.76 ± 0.45 g
same,% BWC Day 14 vs Day 0,[2]; OCI-LY19 tumor-bearing mice,8.96%
same,Body weight change Day 14 vs Day 0 (in g),[2]; OCI-LY19 tumor-bearing mice,(1.81 g)
same,Safety / drug-related toxicity in words,"[2]; OCI-LY19 tumor-bearing mice, during the study",good safety
same,Number of Mice with Drug-related Deaths Day 14,[2]; deaths/number of mice,0/10
same,Tumor Volume (Mean ± SEM) Day 0,"[3]; Day 0 (at grouping, before dosing), 10 mice/group",107.78 mm^3
same,% T/CRTV Day 14,[3]; Day 14,48.28%
same,% TGI Day 14,[3]; Day 14,51.87%
same,Tumor Volume (Mean ± SEM) Day 14,"[3]; Day 14, TRS005 1.5 mg/kg IV BIW × 3 w, regimens per Table 5, 1.5 mg/kg",905.30±129.66 mm^3 and 905.30 mm^3
same,RTV Day 14,"[3]; Day 14, Vt/V0",8.29
same,Tumor Volume (Mean ± SEM) Day 17,[3]; Day 17,1182.02 mm^3
same,Tumor Volume (Mean ± SEM) Day 21,"[3]; Day 21, remaining mice (Group 3 N = 9)",1764.32 mm^3
same,Tumor Volume (Mean ± SEM) Day 24,"[3]; Day 24, remaining mice (Group 3 N = 6)",2274.64 mm^3
same,Tumor Volume (Mean ± SEM) Day 28,"[3]; Day 28, remaining mice (Group 2 N = 3, Group 3 N = 1, Group 4 N = 9)",0.00 mm^3
same,Anti-tumor efficacy in words,"[4]; WSU-DLCL2 xenograft (high CD20 expression), compared with the other regimens",better efficacy than the R-CHOP regimen
same,Tumor Volume (Mean ± SEM) Day 0,"[4]; WSU-DLCL2 xenograft, Day 0 (at grouping, before dosing), 6 mice/group",127.16 mm^3
same,% T/CRTV Day 35,"[4]; WSU-DLCL2 xenograft, Day 35",17.81%
same,RTV Day 35,"[4]; WSU-DLCL2 xenograft, Day 35, Vt/V0",2.44
same,Tumor Volume (Mean ± SEM) Day 35,"[4]; WSU-DLCL2 xenograft, Day 35, TRS005 0.75 mg/kg IV BIW × 3 w, regimens per Table 2, 0.75 mg/kg",315.93±94.23 mm^3 and 315.93 mm^3
same,% TGI Day 35,"[4]; WSU-DLCL2 xenograft, Day 35, regimens per Table 2",81.94%
